According to PubChem BioAssay (NCI):
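48-hour exposure; five concentrations; linearly interpolated endpoints. The concentration for 50% growth inhibition is given as GI50. TGI marks complete inhibition of growth.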

Legend:
Experiment in all cases: growth of human tumour cells (NCI), 48 h
A498 renal = tested on: A498 renal
T-47D breast = tested on: T-47D breast
HCT-116 colon = tested on: HCT-116 colon
HT29 colon = tested on: HT29 colon
MDA-MB-435 = tested on: MDA-MB-435
OVCAR-8 ovarian = tested on: OVCAR-8 ovarian
SN12C renal = tested on: SN12C renal
MDA-MB-468 breast = tested on: MDA-MB-468 breast
SF-295 CNS = tested on: SF-295 CNS
COLO 205 colon = tested on: COLO 205 colon
BT-549 breast = tested on: BT-549 breast
SF-539 CNS = tested on: SF-539 CNS
SK-MEL-5 melanoma = tested on: SK-MEL-5 melanoma
HCT-15 colon = tested on: HCT-15 colon
ACHN renal = tested on: ACHN renal
MOLT-4 leukemia = tested on: MOLT-4 leukemia
KM12 colon = tested on: KM12 colon
SK-MEL-28 melanoma = tested on: SK-MEL-28 melanoma
MCF7 breast = tested on: MCF7 breast
SR leukemia = tested on: SR leukemia
OVCAR-5 ovarian = tested on: OVCAR-5 ovarian
OVCAR-3 ovarian = tested on: OVCAR-3 ovarian
MDA-MB-231 breast = tested on: MDA-MB-231 breast
PC-3 prostate = tested on: PC-3 prostate
HOP-92 NSCLC = tested on: HOP-92 NSCLC
M14 melanoma = tested on: M14 melanoma
IGROV1 ovarian = tested on: IGROV1 ovarian
K-562 leukemia = tested on: K-562 leukemia
NCI-H23 lung = tested on: NCI-H23 lung
A549 NSCLC = tested on: A549 NSCLC
SK-OV-3 ovarian = tested on: SK-OV-3 ovarian
LOX IMVI melanoma = tested on: LOX IMVI melanoma
SNB-19 CNS = tested on: SNB-19 CNS
SF-268 CNS = tested on: SF-268 CNS
MALME-3M melanoma = tested on: MALME-3M melanoma
UACC-62 melanoma = tested on: UACC-62 melanoma
SK-MEL-2 melanoma = tested on: SK-MEL-2 melanoma
786-0 renal = tested on: 786-0 renal
HCC-2998 colon = tested on: HCC-2998 colon
U251 CNS = tested on: U251 CNS
NCI-H460 lung = tested on: NCI-H460 lung
CAKI-1 renal = tested on: CAKI-1 renal
NCI-H226 lung = tested on: NCI-H226 lung
OVCAR-4 ovarian = tested on: OVCAR-4 ovarian
HOP-62 NSCLC = tested on: HOP-62 NSCLC
HL-60(TB) leukemia = tested on: HL-60(TB) leukemia
RPMI-8226 leukemia = tested on: RPMI-8226 leukemia
EKVX NSCLC = tested on: EKVX NSCLC
UO-31 renal = tested on: UO-31 renal
UACC-257 melanoma = tested on: UACC-257 melanoma
SNB-75 CNS = tested on: SNB-75 CNS
HS 578T breast = tested on: HS 578T breast
RXF 393 renal = tested on: RXF 393 renal
SW-620 colon = tested on: SW-620 colon
TK-10 renal = tested on: TK-10 renal
DU-145 prostate = tested on: DU-145 prostate
NCI-H522 lung = tested on: NCI-H522 lung
CCRF-CEM leukemia = tested on: CCRF-CEM leukemia

**Q.** What does the source list for `COc1ccc([C@H]2C(C(=O)c3ccc(Cl)cc3)C3(N[C@@H]2c2ccccc2)C(=O)Nc2ccc(Cl)cc23)cc1` (stereo partly specified)?
**A.** GI50 (A498 renal): 8.68 µM; TGI (A498 renal): 22.4 µM; GI50 (T-47D breast): 2.61 µM; TGI (T-47D breast): 13.4 µM; GI50 (HCT-116 colon): 2.62 µM; TGI (HCT-116 colon): 10.5 µM; GI50 (HT29 colon): 2.2 µM; TGI (HT29 colon): 8.71 µM; GI50 (MDA-MB-435): 4.02 µM; TGI (MDA-MB-435): 14.5 µM; GI50 (OVCAR-8 ovarian): 4.98 µM; TGI (OVCAR-8 ovarian): 14 µM; GI50 (SN12C renal): 3 µM; TGI (SN12C renal): 10.4 µM; GI50 (MDA-MB-468 breast): 7.07 µM; TGI (MDA-MB-468 breast): 19.8 µM; GI50 (SF-295 CNS): 3.08 µM; TGI (SF-295 CNS): 13.1 µM; GI50 (COLO 205 colon): 6.72 µM; TGI (COLO 205 colon): 14.5 µM; GI50 (BT-549 breast): 6.91 µM; TGI (BT-549 breast): 14.6 µM; GI50 (SF-539 CNS): 7.28 µM; TGI (SF-539 CNS): 16.6 µM; GI50 (SK-MEL-5 melanoma): 9.38 µM; TGI (SK-MEL-5 melanoma): 17.9 µM; GI50 (HCT-15 colon): 3.86 µM; TGI (HCT-15 colon): 12.7 µM; GI50 (ACHN renal): 2.32 µM; TGI (ACHN renal): 17.9 µM; GI50 (MOLT-4 leukemia): 1.95 µM; TGI (MOLT-4 leukemia): 56.6 µM; GI50 (KM12 colon): 2.44 µM; TGI (KM12 colon): 12.8 µM; GI50 (SK-MEL-28 melanoma): 6.47 µM; TGI (SK-MEL-28 melanoma): 13.6 µM; GI50 (MCF7 breast): 1.91 µM; TGI (MCF7 breast): 13.1 µM; GI50 (SR leukemia): 2.08 µM; TGI (SR leukemia): 20.5 µM; GI50 (OVCAR-5 ovarian): 6.48 µM; TGI (OVCAR-5 ovarian): 14.1 µM; GI50 (OVCAR-3 ovarian): 6.39 µM; TGI (OVCAR-3 ovarian): 23.1 µM; GI50 (MDA-MB-231 breast): 4.87 µM; TGI (MDA-MB-231 breast): 12.2 µM; GI50 (PC-3 prostate): 1.99 µM; TGI (PC-3 prostate): 10.6 µM; GI50 (HOP-92 NSCLC): 2.38 µM; TGI (HOP-92 NSCLC): 10.7 µM; GI50 (M14 melanoma): 2.99 µM; TGI (M14 melanoma): 12.7 µM; GI50 (IGROV1 ovarian): 3.54 µM; TGI (IGROV1 ovarian): 13.7 µM; GI50 (K-562 leukemia): 2.31 µM; TGI (K-562 leukemia): 57.5 µM; GI50 (NCI-H23 lung): 6.19 µM; TGI (NCI-H23 lung): 16.2 µM; GI50 (A549 NSCLC): 2.4 µM; TGI (A549 NSCLC): 13.7 µM; GI50 (SK-OV-3 ovarian): 11.5 µM; TGI (SK-OV-3 ovarian): 38.4 µM; GI50 (LOX IMVI melanoma): 2.75 µM; TGI (LOX IMVI melanoma): 14 µM; GI50 (SNB-19 CNS): 6.5 µM; TGI (SNB-19 CNS): 46.5 µM; GI50 (SF-268 CNS): 3.21 µM; TGI (SF-268 CNS): 38 µM; GI50 (MALME-3M melanoma): 8.38 µM; TGI (MALME-3M melanoma): 16.1 µM; GI50 (UACC-62 melanoma): 2.13 µM; TGI (UACC-62 melanoma): 9.36 µM; GI50 (SK-MEL-2 melanoma): 6.16 µM; TGI (SK-MEL-2 melanoma): 13.4 µM; GI50 (786-0 renal): 5.11 µM; TGI (786-0 renal): 20 µM; GI50 (HCC-2998 colon): 2.09 µM; TGI (HCC-2998 colon): 8.15 µM; GI50 (U251 CNS): 5.5 µM; TGI (U251 CNS): 13 µM; GI50 (NCI-H460 lung): 2.5 µM; TGI (NCI-H460 lung): 9.26 µM; GI50 (CAKI-1 renal): 1.53 µM; TGI (CAKI-1 renal): 15.1 µM; GI50 (NCI-H226 lung): 6.64 µM; TGI (NCI-H226 lung): 14.8 µM; GI50 (OVCAR-4 ovarian): 5.77 µM; TGI (OVCAR-4 ovarian): 27.1 µM; GI50 (HOP-62 NSCLC): 6.75 µM; TGI (HOP-62 NSCLC): 14.5 µM; GI50 (HL-60(TB) leukemia): 4.1 µM; TGI (HL-60(TB) leukemia): 22.2 µM; GI50 (RPMI-8226 leukemia): 3.62 µM; TGI (RPMI-8226 leukemia): 48 µM; GI50 (EKVX NSCLC): 6.43 µM; TGI (EKVX NSCLC): 30.7 µM; GI50 (UO-31 renal): 1.74 µM; TGI (UO-31 renal): 10.8 µM; GI50 (UACC-257 melanoma): 6.69 µM; TGI (UACC-257 melanoma): 18.6 µM; GI50 (SNB-75 CNS): 2.82 µM; TGI (SNB-75 CNS): 27.2 µM; GI50 (HS 578T breast): 7.49 µM; TGI (HS 578T breast): 24.9 µM; GI50 (RXF 393 renal): 2.93 µM; TGI (RXF 393 renal): 12 µM; GI50 (SW-620 colon): 5.33 µM; TGI (SW-620 colon): 21.5 µM; GI50 (TK-10 renal): 7.42 µM; TGI (TK-10 renal): 19.8 µM; GI50 (DU-145 prostate): 7.91 µM; TGI (DU-145 prostate): 27 µM; GI50 (NCI-H522 lung): 5.24 µM; TGI (NCI-H522 lung): 14.3 µM; GI50 (CCRF-CEM leukemia): 3.32 µM; TGI (CCRF-CEM leukemia): 25.1 µM
